Read-outs that look alike come from different tables or passages of the source. *1 amine or outer side, *2 acyl side, *3 side chain or, on linkers, in order; H or OH if unused. Where a SMILES comes first, the peptide text is derived from it. Bridges are numbered along the chain shown (N, C = ends). [ ]: non-standard residue; d: D form. The star is where a group is joined. hPhe(3-Cl-4-CF3) = N[C@@H](CCc1ccc(C(F)(F)F)c(Cl)c1)C(=O)O; NPrPhe(4-CF3) = CCCN[C@@H](Cc1ccc(C(F)(F)F)cc1)C(=O)O; X14 = COCCN([C@@H](Cc1ccc(C)cc1)C(=O)[*:2])[*:1]; X8 = CCCN([C@@H](COCCC(C)C)C(=O)[*:2])[*:1]; NMeGly(cPent) = CN[C@H](C(=O)O)C1CCCC1; Pro(4S-Me) = C[C@@H]1CN[C@H](C(=O)O)C1; Hyp = O=C(O)[C@@H]1C[C@@H](O)CN1; NMeD = CN[C@@H](CC(=O)O)C(=O)O; NMeL = CN[C@@H](CC(C)C)C(=O)O; Morpholide = C1CN(*)CCO1; NMeA = CN[C@@H](C)C(=O)O; Ac5c = NC1(C(=O)O)CCCC1; Aze = O=C(O)[C@@H]1CCN1; Ac4c = NC1(C(=O)O)CCC1; Sar = CNCC(=O)O
Legend:
[1] = tested on: human lung cancer strain NCI-H441; type: cell-based
In short: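 Proliferation was scored by […] measured after the reagent was added to cultures kept at 37°C in 5% carbon dioxide.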

[2] = biological target: GDP-bound NRAS wild-type protein (Homo sapiens, UniProt P01111); assay: Binding to NRAS by surface plasmon resonance (SPR), KD and KD ratio to KRAS
In short: (§1)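 Compound binding is evaluated by SPR single-cycle kinetics, with concentrations added intermittently from low to high for 75 s each. Target surfaces carry GDP-loaded biotinylated Avi-RAS at about 100–300 RU, regenerated after each cycle; temperature 30°C. A 1:1 binding model gives KD.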

HRAS wild-type protein = HRAS wild-type protein (Homo sapiens, UniProt P01112); assay: Binding to HRAS by surface plasmon resonance (SPR), KD and KD ratio to KRAS
In short: as §1

[3] = ratio of KD for GDP-bound NRAS wild-type protein to KD for KRAS
[4] = ratio of KD for HRAS wild-type protein to KD for KRAS
[5] = ratio of the KD value with respect to GDP-bound NRAS wild-type protein to the KD value with respect to KRAS
[6] = ratio of the KD value with respect to HRAS wild-type protein to the KD value with respect to KRAS
[7] = ratio of KD value for GDP-bound NRAS wild-type protein to KD value for KRAS (SPR)
[8] = ratio of KD value for HRAS wild-type protein to KD value for KRAS (SPR)

Chain of HRAS wild-type protein (P01112 whole entry): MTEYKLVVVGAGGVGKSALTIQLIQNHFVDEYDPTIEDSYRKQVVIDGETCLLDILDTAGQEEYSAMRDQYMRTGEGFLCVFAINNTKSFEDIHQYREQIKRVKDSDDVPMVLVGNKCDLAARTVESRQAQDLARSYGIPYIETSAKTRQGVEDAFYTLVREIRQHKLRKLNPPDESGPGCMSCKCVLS
Chain of GDP-bound NRAS wild-type protein (P01111 whole entry): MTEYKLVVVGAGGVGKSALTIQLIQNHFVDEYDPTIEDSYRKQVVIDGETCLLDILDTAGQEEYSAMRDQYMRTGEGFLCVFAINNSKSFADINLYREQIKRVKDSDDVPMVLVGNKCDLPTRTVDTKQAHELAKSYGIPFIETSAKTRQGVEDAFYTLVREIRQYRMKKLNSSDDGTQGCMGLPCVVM

SMILES | IC50 [1] [nM] | NRAS /KRAS [2, 3] | HRAS /KRAS (HRAS wild-type protein; [4]) | NRAS /KRAS [2, 5] | HRAS /KRAS (HRAS wild-type protein; [6]) | other results
CCO[C@@H]1C[C@H]2C(=O)NC3(CCC3)C(=O)N(C)[C@@H](C3CCCC3)C(=O)N(C)[C@H](C(=O)N3CCOCC3)CC(=O)N(C)[C@@H](CC(C)C)C(=O)N[C@@H]([C@@H](C)CC)C(=O)N(C)CC(=O)N(C)[C@H]3CCCCCN(C3=O)[C@@H](Cc3ccc(F)c(Cl)c3)C(=O)N(C)CC(=O)N[C@@H](CCc3cc(F)c(C(F)(F)F)c(F)c3)C(=O)N2C1 [PP0919] | 110 | B (a compound having 3 or more and less than 10 is denoted as B) | B (a compound having 3 or more and less than 10 is denoted as B) |  |  | 
CCC[C@H]1C(=O)N[C@@H]([C@@H](C)CC)C(=O)N(C)CC(=O)N(C)[C@H]2C/C=C\CCN(C2=O)[C@@H](Cc2ccc(C(F)(F)F)cc2)C(=O)N(C)CC(=O)N[C@@H](CCc2cc(F)c(C(F)(F)F)c(F)c2)C(=O)N2C[C@H](OCC)C[C@H]2C(=O)NC2(CCC2)C(=O)N(C)[C@@H](C2CCCC2)C(=O)N(C)[C@H](C(=O)N(C)CCC)CC(=O)N1C [PP1389] | 2.4 |  |  |  |  | NRAS /KRAS ([2]; ratio of KD with respect to GDP-bound NRAS wild-type protein to KD with respect to KRAS): AA (a compound having 20 or more is denoted as AA); HRAS /KRAS (HRAS wild-type protein; ratio of KD with respect to HRAS wild-type protein to KD with respect to KRAS): A (a compound having 10 or more and less than 20 is denoted as A)
CC[C@H](C)[C@@H]1NC(=O)[C@H](CC(C)C)N(C)C(=O)C[C@@H](C(=O)N2CCOCC2)N(C)C(=O)[C@H](C2CCCC2)N(C)C(=O)C2(CCCC2)NC(=O)[C@@H]2CCCN2C(=O)[C@H](CCc2ccc(C(F)(F)F)c(Cl)c2)NC(=O)CN(C)C(=O)[C@H](Cc2ccc(C)cc2)N(CCOC)C(=O)[C@@H]2CCN2C(=O)[C@H](C)N(C)C1=O [PP0092] ([NMeL]I[NMeA][Aze][X14][Sar][hPhe(3-Cl-4-CF3)]P[Ac5c][NMeGly(cPent)][NMeD]-Morpholide; lactam N-11) | 3.7 | C (A compound having a KD ratio of 0.1 or more and less than 3 is denoted as C) | C (A compound having a KD ratio of 0.1 or more and less than 3 is denoted as C) |  |  | 
CCC[C@H]1C(=O)N[C@@H]([C@@H](C)CC)C(=O)N2CCC[C@H]2C(=O)N(C)[C@H]2C/C=C\CCN(C2=O)[C@@H](Cc2ccc(C(F)(F)F)cc2)C(=O)N(C)CC(=O)N[C@@H](CCc2cc(F)c(C(F)(F)F)c(F)c2)C(=O)N2C[C@H](OCC)C[C@H]2C(=O)N(C)C2(CCC2)C(=O)N(C)[C@@H](C2CCCC2)C(=O)N(C)[C@H](C(=O)N2CCCCC2)CC(=O)N1C [PP3114] | 14.7 | AA (a compound having 20 or more is denoted as AA) | A (a compound having 10 or more and less than 20 is denoted as A) |  |  | 
CCC[C@H]1C(=O)N[C@@H]([C@@H](C)CC)C(=O)N(C2CC2)CC(=O)N(C)[C@H]2C/C=C\CCN(C2=O)[C@@H](Cc2ccc(C(F)(F)F)cc2)C(=O)N(C)CC(=O)N[C@@H](CCc2ccc(C(F)(F)F)c(OC)c2)C(=O)N2C[C@H](OCC)C[C@H]2C(=O)NC2(CC(C)(C)C2)C(=O)N(C)[C@@H](C2CCCC2)C(=O)N(C)[C@H](C(=O)N(C)C)CC(=O)N1C [PP2105] | 10.4 |  |  | A (a compound having 10 or more and less than 20 is denoted as A) | A (a compound having 10 or more and less than 20 is denoted as A) | 
CCCN1C(=O)CN(C)C(=O)CN(C)C(=O)[C@H]([C@@H](C)CC)NC(=O)[C@H](CC(C)C)N(C)C(=O)C[C@@H](C(=O)N2CCOCC2)N(C)C(=O)[C@H](C2CCCC2)N(C)C(=O)C2(CCCC2)NC(=O)[C@@H]2C[C@H](C)CN2C(=O)[C@H](CCc2ccc(C(F)(F)F)c(Cl)c2)NC(=O)CN(C)C(=O)[C@@H]1Cc1ccc(C(F)(F)F)cc1 [PP0447] ([NMeL]I[Sar][Sar][NPrPhe(4-CF3)][Sar][hPhe(3-Cl-4-CF3)][Pro(4S-Me)][Ac5c][NMeGly(cPent)][NMeD]-Morpholide; lactam N-11) | 3.9 |  |  | B (a compound having 3 or more and less than 10 is denoted as B) | C (A compound having a KD ratio of 0.1 or more and less than 3 is denoted as C) | 
CCO[C@@H]1C[C@H]2C(=O)NC3(CCC3)C(=O)N(C)[C@@H](C3CCCC3)C(=O)N(C)[C@H](C(=O)N3CCOCC3)CC(=O)N(C)[C@@H](CC(C)C)C(=O)N[C@@H]([C@@H](C)CC)C(=O)N(C)CC(=O)N(C)[C@H]3CCCCCN(C3=O)[C@@H](Cc3ccc(C(F)(F)F)cc3)C(=O)N(C)CC(=O)N[C@@H](CCc3cc(F)c(C(F)(F)F)c(F)c3)C(=O)N2C1 [PP0467] | 33.8 |  |  | B (a compound having 3 or more and less than 10 is denoted as B) | B (a compound having 3 or more and less than 10 is denoted as B) | 
CCOC[C@H]1C(=O)N[C@@H]([C@@H](C)CC)C(=O)N(C)CC(=O)N(C)[C@H]2C/C=C\CCN(C2=O)[C@@H](Cc2ccc(C)cc2F)C(=O)N(C)CC(=O)N[C@@H](CCc2ccc(C(F)(F)F)c(OC)c2)C(=O)N2C[C@@H](C)C[C@H]2C(=O)NC2(CC(C)(C)C2)C(=O)N(C)[C@@H](C2CCCC2)C(=O)N(C)[C@H](C(=O)N(C)CC)CC(=O)N1C [PP2697] |  | A (a compound having 10 or more and less than 20 is denoted as A) | A (a compound having 10 or more and less than 20 is denoted as A) |  |  | IC50 ([1]; NCI-H441 cells, 4 days, CellTiter-Glo, read-out: NCl-H441 IC50): 42.8 nM
CCO[C@@H]1C[C@H]2C(=O)NC3(CC(F)(F)C3)C(=O)N(C)[C@@H](C(CC)CC)C(=O)N3CCC[C@@H]3CC(=O)N(C)[C@@H](CC)C(=O)N[C@@H]([C@@H](C)CC)C(=O)N(C)CC(=O)N(C)[C@H]3C/C=C\CCN(C3=O)[C@@H](Cc3ccc(C(F)(F)F)cc3)C(=O)N(C)CC(=O)N[C@@H](CCc3cc(F)c(C(F)(F)F)c(F)c3)C(=O)N2C1 [PP1608] | 70.1 |  |  |  |  | NRAS /KRAS [2, 7]: A (a compound having 10 or more and less than 20 is denoted as A); HRAS /KRAS (HRAS wild-type protein; [8]): A (a compound having 10 or more and less than 20 is denoted as A)
CCCN1C(=O)[C@@H]2CCN2C(=O)CN(C)C(=O)[C@H]([C@@H](C)CC)NC(=O)[C@H](CC(C)C)N(C)C(=O)C[C@@H](C(=O)N2CCOCC2)NC(=O)[C@H](C2CCCC2)N(C)C(=O)C2(CCC2)NC(=O)[C@@H]2C[C@@H](OCC)CN2C(=O)[C@H](CCc2ccc(C(F)(F)F)c(Cl)c2)NC(=O)CN(C)C(=O)[C@@H]1Cc1ccc(C(F)(F)F)cc1 [PP0354] ([NMeL]I[Sar][Aze][NPrPhe(4-CF3)][Sar][hPhe(3-Cl-4-CF3)][Hyp](Et)[Ac4c][NMeGly(cPent)]D-Morpholide; lactam N-11) | 24.7 | C (A compound having a KD ratio of 0.1 or more and less than 3 is denoted as C) | B (a compound having 3 or more and less than 10 is denoted as B) |  |  | 
CCC[C@H]1C(=O)N[C@@H]([C@@H](C)CC)C(=O)N(C)CC(=O)N(C)[C@H]2C/C=C\CCN(C2=O)[C@@H](Cc2ccc(C(F)(F)F)cc2)C(=O)N(C)CC(=O)N[C@@H](CCc2ccc(C(F)(F)F)c(OC)c2)C(=O)N2C[C@H](OCC)C[C@H]2C(=O)NC2(CC(C)(C)C2)C(=O)N(C)[C@@H](C(CC)CC)C(=O)N(C)[C@H](C(=O)N(C)C)CC(=O)N1C [PP2160] | 5.4 |  |  | A (a compound having 10 or more and less than 20 is denoted as A) | A (a compound having 10 or more and less than 20 is denoted as A) | 
C#CCN1CC(=O)N(C)[C@H]2C/C=C\CCN(C2=O)[C@@H](Cc2ccc(C(F)(F)F)cc2)C(=O)N(C)CC(=O)N[C@@H](CCc2cc(F)c(C(F)(F)F)c(F)c2)C(=O)N2C[C@H](OCC)C[C@H]2C(=O)NC2(CC(C)(C)C2)C(=O)N(C)[C@@H](C2CCCC2)C(=O)N(C)[C@H](C(=O)N(C)C)CC(=O)N(C)[C@@H](CC)C(=O)N[C@@H]([C@@H](C)CC)C1=O [PP2087] | 4.8 |  |  | A (a compound having 10 or more and less than 20 is denoted as A) | A (a compound having 10 or more and less than 20 is denoted as A) | 
CCCN1C(=O)CN(C)C(=O)CN(C)C(=O)[C@H]([C@@H](C)CC)NC(=O)[C@H](CC(C)C)N(C)C(=O)C[C@@H](C(=O)N2CCOCC2)N(C)C(=O)[C@H](C2CCCC2)N(C)C(=O)C2(CCC2)NC(=O)[C@@H]2CCCN2C(=O)[C@H](CCc2ccc(C(F)(F)F)c(Cl)c2)NC(=O)CN(C)C(=O)[C@@H]1COCCC(C)C [PP1817] ([NMeL]I[Sar][Sar][X8][Sar][hPhe(3-Cl-4-CF3)]P[Ac4c][NMeGly(cPent)][NMeD]-Morpholide; lactam N-11) | 20.4 |  |  |  |  | NRAS /KRAS [2, 7]: C (A compound having a KD ratio of 0.1 or more and less than 3 is denoted as C); HRAS /KRAS (HRAS wild-type protein; [8]): C (A compound having a KD ratio of 0.1 or more and less than 3 is denoted as C)
CCC(CC)[C@H]1C(=O)N(C)[C@H](C(=O)N(C)C)CC(=O)N(C)[C@@H](COC)C(=O)N[C@@H]([C@@H](C)CC)C(=O)N(C)CC(=O)N(C)[C@H]2C/C=C\CCN(C2=O)[C@@H](Cc2ccc(C(F)(F)F)cc2)C(=O)N(C)CC(=O)N[C@@H](CCc2ccc(C(F)(F)F)c(Cl)c2)C(=O)N2CC3(CC3)C[C@H]2C(=O)NC2(CC(C)(C)C2)C(=O)N1C [PP2965] | 27.1 | AA (a compound having 20 or more is denoted as AA) | A (a compound having 10 or more and less than 20 is denoted as A) |  |  | 

From patent EP4603105A1, “PHARMACEUTICAL COMPOSITION CONTAINING CYCLIC COMPOUND HAVING SELECTIVE KRAS INHIBITORY EFFECT AGAINST HRAS AND NRAS” (CHUGAI SEIYAKU KABUSHIKI KAISHA, priority 2022, dated 2024)
